Here are results for 12 molecules from patent US5556941A, “Glycopeptide derivatives, a process for their preparation and pharmaceutical agents containing these compounds” (Behringwerke Aktiengesellschaft, priority 1992, dated 1996).

One series deals with T1, human thrombin (Homo sapiens, UniProt P00734).
T1 construct: By proteolysis the proenzyme prothrombin is converted into thrombin
Nature of the series: Determination of the inhibition constants (Ki) for thrombin, chromogenic substrate S-2238. Format: biochemical. To be noted: 100 pM human thrombin, pH 7.8, 37° C., 10 minutes preincubation, tight-binding evaluation. As to the method:
The inhibition constants (Ki) of the compounds of the formula I were determined in established enzyme-kinetic procedures. […] Inhibitor and enzyme were preincubated for 10 minutes, and the reaction was started by addition of the chromogenic substrate S2238. For the evaluation of the kinetics, the mathematical algorithm for tight-binding was used, which gave Ki values and the inhibition type with the aid of non-linear regression.

Series [1] concerns the target T2, trypsin from bovine pancreas (Bos taurus, UniProt P00760).
T2 construct: from tissue; host or cells: bovine pancreas
T2 sequence (P00760 24-246): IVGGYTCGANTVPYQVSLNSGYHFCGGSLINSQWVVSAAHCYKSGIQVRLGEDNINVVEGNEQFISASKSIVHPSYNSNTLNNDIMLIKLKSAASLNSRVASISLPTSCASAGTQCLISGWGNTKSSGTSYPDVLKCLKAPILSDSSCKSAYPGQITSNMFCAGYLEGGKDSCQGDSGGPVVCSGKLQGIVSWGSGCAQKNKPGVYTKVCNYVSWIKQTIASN
Kind of series: Determination of the specificity of the inhibitors: Ki of trypsin, substrate Chromozyme TRY. Format: biochemical. The note with it: for Ki: 0.5 nM bovine pancreas trypsin, pH 7.8, 37° C., 10 minute preincubation; for Specificity Try/Thr: ratio Ki trypsin / Ki thrombin. As to the method:
The specificity of the inhibitors towards thrombin and trypsin was determined. The Ki of trypsin was determined in an analogous manner to the determination of the Ki of thrombin. The reaction mixture was composed as follows--buffer: 200 mM triethanolamine, 20 mM CaCl2, pH 7.8; 37° C.; enzyme: 0.5 nM trypsin from bovine pancreas; substrate: 500 μM carbobenzoxy-L-valyl-glycyl-L-arginine-4-nitranilide (Chromozyme TRY, from Boehringer Mannheim). The enzymatic reaction was started after a 10 minute preincubation by addition of the substrate.

Another series relates to CD rats. Kind of series: Determination of the acute toxicity. To be noted: i.v., survival on day 1, Litchfield & Wilcoxon method. It counts as in vivo, rat. As to the method: To determine the acute toxicity, CD rats were injected i.v. on day 0 with different doses of the test substance dissolved in 0.5 mL of physiol. NaCl solution. Control groups received only 0.5 mL of physiol. NaCl solution. 2 rats were used per concentration of the test substance. The number of rats surviving on day 1 was determined and the LD5, LD50 and LD95 were calculated by the Litchfield & Wilcoxon method. […] The results are summarized in Table I. Pharmacological data and activities of some selected compounds: […]

Another series concerns thrombin. To be noted: cited from earlier work.

The Ki is a dissociation constant, usually derived from enzyme kinetics or from competition with a known ligand. Read a low Ki as a stronger hold on the target. Turning to `COc1cc(C)c(S(=O)(=O)N[C@@H](CC(=O)N[C@H]2O[C@@H](C)[C@@H](O)[C@@H](O)[C@@H]2O)C(=O)N[C@H](Cc2ccc(C(=N)N)cc2)C(=O)N2CCCCC2)c(C)c1C.Cl` [Compound 49, 2-N-(4-Methoxy-2,3,6-trimethyl-benzenesulfonyl)-4-N-(β-L-fucopyranosyl)-L-aspaginyl-4-amidino-D-phenylalanine-piperidide hydrochloride], the affinity on human thrombin, expressed as Ki, was 0.1 nM. In series [1], the affinity corresponds to a Ki of 531 nM and the “Specificity Try/Thr” value turned out to be 5310. Moreover, in the series on CD rats, the “LD50 (rat)” value is listed as 52 mg/kg.
Molecule `COc1cc(C)c(S(=O)(=O)N[C@@H](CO[C@@H]2OC[C@@H](O)[C@@H](O)[C@H]2O)C(=O)N[C@H](Cc2ccc(C(=N)N)cc2)C(=O)N2CCCCC2)c(C)c1C.I` [Compound 42, 2-N-(4-Methoxy-2,3,6-trimethyl-benzenesulfonyl)-3-O-(β-D-ribo-pyranosyl)-L-seryl-4-amidino-D-phenylalanine-piperidide hydroiodide] displayed a Ki on human thrombin of 1.3 nM. In series [1], the Ki is 650 nM and the “Specificity Try/Thr” value was 500. The “LD50 (rat)” value in the series on CD rats turned out to be 60 mg/kg.
For `COc1cc(C)c(S(=O)(=O)N[C@@H](CC(=O)N[C@@H]2O[C@H](CO)[C@@H](O)[C@H](O)[C@H]2NC(C)=O)C(=O)N[C@H](Cc2ccc(C(=N)N)cc2)C(=O)N2CCCCC2)c(C)c1C.Cl` [Compound 32, 2-N-(4-Methoxy-2,3,6-trimethyl-benzenesulfonyl)-4-N-(2-acetamido-2-deoxy-β-D-glucopyranosyl)-L-asparaginyl-4-amidino-D-phenylalanine-piperidide hydrochloride] the same measures were 1.1 nM, 528 nM, 480 and 53 mg/kg.
As to `COc1cc(C)c(S(=O)(=O)N[C@@H](CC(=O)N[C@@H]2O[C@H](C(=O)O)[C@@H](O)[C@H](O)[C@H]2O)C(=O)N[C@H](Cc2ccc(C(=N)N)cc2)C(=O)N2CCCCC2)c(C)c1C.Cl` [Compound 30, 2-N-(4-Methoxy-2,3,6-trimethyl-benzenesulfonyl)-4-N-[(β-D-glucopyranosyl)-uronic acid]-L-asparaginyl-4-amidino-D-phenylalanine-piperidide hydrochloride], the affinity on human thrombin, expressed as Ki, was 0.085 nM. For the same molecule, in series [1], the inhibitory constant (Ki) was 349 nM and the “Specificity Try/Thr” value was 4106. Further, in the series with CD rats, the “LD50 (rat)” value worked out at 51 mg/kg.
For `COc1cc(C)c(S(=O)(=O)N[C@@H](CC(=O)N[C@@H]2O[C@H](COC(C)=O)[C@@H](OC(C)=O)[C@H](OC(C)=O)[C@H]2OC(C)=O)C(=O)N[C@H](Cc2ccc(C(=N)N)cc2)C(=O)N2CCCCC2)c(C)c1C.Cl` [Compound 25, 2-N-(4-Methoxy-2,3,6-trimethyl-benzenesulfonyl)-4-N-(2,3,4,6-tetra-O-acetyl-β-D-glucopyranosyl)-L-asparaginyl-4-amidino-D-phenylalanine-piperidide hydrochloride] the same measures were 2.4 nM, 283 nM, 118 and 55 mg/kg.
With `N=C(N)c1ccc(CC(NC(=O)CNS(=O)(=O)c2ccc3ccccc3c2)C(=O)N2CCCCC2)cc1` (centres unmarked) [NAPAP, 2-N-(2-naphthalenesulfonylglycyl)-4-amidino-phenylalaninc piperidide], the specificity for thrombin entry in the series on thrombin is given as “too low”.
Regarding `COC(=O)C1OC(NC(=O)C[C@H](NS(=O)(=O)c2c(C)cc(OC)c(C)c2C)C(=O)N[C@H](Cc2ccc(C(=N)N)cc2)C(=O)N2CCCCC2)C(OC(C)=O)C(OC(C)=O)C1OC(C)=O.Cl` (stereo partly drawn) [Compound 24, 2-N-(4-Methoxy-2,3,6-trimethyl-benzenesulfonyl)-4-N-[methyl (2,3,4-tri-O-acetyl-β-D-glucopyranosyl)uronate]-L-asparaginyl-4-amidino-D-phenylalanine-piperidide hydrochloride], at human thrombin, the inhibition constant Ki was 0.8 nM. Moreover, in series [1], the Ki amounted to 231 nM and the “Specificity Try/Thr” value came out at 289. Further, the “LD50 (rat)” value with CD rats is reported as 46 mg/kg.
As for `COc1cc(C)c(S(=O)(=O)N[C@@H](CC(=O)N[C@@H]2O[C@H](CO)[C@@H](O)[C@H](O)[C@H]2O)C(=O)N[C@H](Cc2ccc(C(=N)N)cc2)C(=O)N2CCCCC2)c(C)c1C.Cl` [Compound 31, 2-N-(4-Methoxy-2,3,6-trimethyl-benzenesulfonyl)-4-N-[(β-D-glucopyranosyl)-L-asparaginyl-4-amidino-D-phenylalanine-piperidide hydrochloride], the Ki on human thrombin amounted to 0.075 nM; in series [1], 501 nM.
`COc1cc(C)c(S(=O)(=O)N[C@@H](CC(=O)O)C(=O)N[C@H](Cc2ccc(C(=N)N)cc2)C(=O)N2CCCCC2)c(C)c1C.Cl` [Compound 43, 2-N-(4-Methoxy-2,3,6-trimethyl-benzenesulfonyl)-L-Asp-4-amidino-D-phenylalanine-piperidide×HCl] came in with an inhibition constant (Ki) at human thrombin of 1.5 nM. In series [1], the Ki came out at 187 nM and the “Specificity Try/Thr” value worked out at 125. Moreover, the “LD50 (rat)” value in the series on CD rats is 62 mg/kg.
For `COc1cc(C)c(S(=O)(=O)N[C@@H](CC(=O)N[C@@H]2O[C@H](CO)[C@H](O)[C@H](O)[C@H]2O)C(=O)N[C@H](Cc2ccc(C(=N)N)cc2)C(=O)N2CCCCC2)c(C)c1C.Cl` [Compound 41, 2-N-(4-Methoxy-2,3,6-trimethyl-benzenesulfonyl)-4-N-(β-D-galactopyranosyl)-L-asparaginyl-4-amidino-D-phenylalanine-piperidide hydrochloride] the same measures were 0.04 nM, 375 nM, 9375 and 50 mg/kg.
Consider `COc1cc(C)c(S(=O)(=O)N[C@@H](CC(=O)N[C@@H]2O[C@H](CO)[C@@H](O)[C@H](O)[C@H]2O)C(=O)N[C@H](Cc2ccc(C(=N)N)cc2)C(=O)N2CCCCC2)c(C)c1C.Cl` [Compound 31], for which the “Specificity Try/Thr” value in series [1] is recorded as 6680. Moreover, in the series with CD rats, the “LD50 (rat)” value is 45 mg/kg.
On to `COc1cc(C)c(S(=O)(=O)N[C@@H](CC(=O)N[C@@H]2O[C@H](CO)[C@H](O)[C@H](O)[C@H]2NC(C)=O)C(=O)N[C@H](Cc2ccc(C(=N)N)cc2)C(=O)N2CCCCC2)c(C)c1C.Cl` [Compound 50, 2-N-(4-Methoxy-2,3,6-trimethyl-benzenesulfonyl)-4-N-(2-acetamido-2-deoxy-β-D-galactopyranosyl)-L-asparaginyl-4-amidino-D-phenylalanine-piperididehydrochloride], for which the values for the inhibitory constant (Ki) (at human thrombin; in series [1]) were 2.1 nM and 608 nM, respectively. Further, the “Specificity Try/Thr” value in series [1] came out at 289. The “LD50 (rat)” value in the series with CD rats came out at 64 mg/kg.
